Here are results for 15 compounds from PubChem BioAssay (NCI).

Assay in all cases: DTP human tumour cell line panel, 48 h
Test [1] deals with EKVX NSCLC.
For test [2], the system named is ACHN renal.
For test [3], the system named is K-562 leukemia.
The subject of test [4] is M14 melanoma.
The subject of test [5] is UO-31 renal.
Test [6] concerns SK-MEL-2 melanoma.
Test [7] relates to A498 renal.
Test [8] has as its system 786-0 renal.
The test system of test [9] is NCI-H460 lung.
Test [10] concerns CCRF-CEM leukemia.

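Exposure lasted 48 hours, with cells grown in 96-well plates and compounds tested at five concentrations. Abbreviation: GI50, concentration required for 50% inhibition of growth. Definition used: TGI = concentration required for complete inhibition of growth.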 Where only a bound is given, the exact number is not on record here.

The term TGI denotes the concentration at which net growth stops. Low values mean greater sensitivity of the cells, high ones lower sensitivity of the cells. With `COC(=O)CCCc1ccc2c(c1)CC1(C2)Cc2cc3c(cc2C1)CCCC3`, the TGI was greater than 100 µM in [1]; greater than 100 µM in [2]; 52.5 µM in test [3]; 68.2 µM in test [4]; greater than 100 µM in test [5]; 57.1 µM in test [6]. Also, the concentration for total growth inhibition (TGI) in [7] and in test [8] was greater than 100 µM throughout.

Usually GI50 stands for the concentration giving 50% growth inhibition. Turning to `O=C(CSc1nc2ccccc2[nH]1)Nc1ccc(-c2nc3ccccc3s2)c(Cl)c1`, the GI50 in [9] was 3.47 µM; in test [1], 6.82 µM; in test [2], 4.52 µM; in test [5], 2.16 µM; in test [6] it was 7.44 µM; in test [7] it was 2.22 µM. In addition, the GI50 in test [10] was greater than 100 µM. Also, the TGI in test [9] was greater than 100 µM; in test [1], greater than 100 µM; in test [2], 57.4 µM; in test [5], 13.7 µM; in test [6], greater than 100 µM; in test [7], 52.7 µM. In test [10], this compound yielded a TGI greater than 100 µM.

As to `CCNC(=O)Nc1cccc(C)n1`, the TGI in test [9], in test [1], in [2], in test [3], in [4] and in test [5] was greater than 100 µM in each case. Besides, the total growth inhibition concentration (TGI) in [7], in test [8] and in [10] was greater than 100 µM throughout.

Take `Cc1ccc([N+](=O)[O-])cc1S(=O)(=O)Nc1ccc(C2=NN(c3ccc([N+](=O)[O-])cc3[N+](=O)[O-])C(c3ccccc3)C2)cc1` (configuration not stated): the total growth inhibition concentration (TGI) in [1] was 34.6 µM; in test [2] it was 40.3 µM; in test [3] it was greater than 100 µM; in [4], 51.1 µM; in test [5], 31.3 µM; in [6], 33.7 µM. Besides, the total growth inhibition concentration (TGI) in [8] is 30.3 µM; in test [10], greater than 100 µM.

With `Cc1cc2c(cc1Cl)Sc1nnc(Nc3ccccc3)n1S2(=O)=O`, the total growth inhibition concentration (TGI) in test [9] is 33.2 µM; in test [1] it was 34.3 µM; in test [2] it was 30.3 µM; in test [3], greater than 100 µM; in [4] it was 60.1 µM; in [5] it was 41.8 µM. Besides, the TGI in test [6] was 21.2 µM; in test [7] it was 33.8 µM; in [8] it was 19.1 µM.

Turning to `Cc1ccc(C(=O)N(C2CCCCC2)C2CCCCC2)cc1N=NN(C)C`, the concentration for total growth inhibition (TGI) was 35.5 µM in test [9]; 32.3 µM in [1]; 22.4 µM in [2]; 47.6 µM in test [3]; 32.6 µM in test [4]; 26 µM in test [5]. The TGI was found to be 7.29 µM in test [6], 28.7 µM in test [8] and 54.7 µM in test [10].

Regarding `Cc1ccc(C)n2c1nc1ccc3ccccc3c12`, the TGI in test [9], in [1], in test [2], in test [3], in [4] and in test [5] was greater than 100 µM in each case. The concentration for total growth inhibition (TGI) in test [8] and in test [10] was greater than 100 µM in each case.

For `C=CCC(C)C12CCNC(Cc3ccc(O)cc31)C2C` (configuration not stated), the TGI in [9], in test [1], in [2], in test [3], in test [4] and in test [5] was greater than 100 µM in each case. The TGI in [7], in test [8] and in test [10] was greater than 100 µM throughout.

As to `CCOC(=O)/C(=C\NCC(O)c1ccccc1)c1nc2ccccc2[nH]1` (configuration not stated), the TGI in test [9] was 50.5 µM; in [1], 91.5 µM; in test [2], 28.8 µM; in [3], 59.6 µM; in test [4], 93.5 µM; in test [5], 94.4 µM. Also, the TGI in test [7] was 64.1 µM; in [8], greater than 100 µM; in [10], 33.3 µM.

For `CC(=O)OC[C@H]1O[C@@H](O[C@H]2[C@H](OC(C)=O)C=CO[C@@H]2COC(C)=O)C(OC(C)=O)[C@H]2OC(C)(C)O[C@H]21` (some centres not stated), the TGI in test [9], in [1], in test [2], in test [3], in test [4] and in test [5] was greater than 100 µM in each case. In addition, the TGI in [8] and in [10] was greater than 100 µM in each case.

Take `CCCCOC(=O)CNC(=O)OCCCCC#CC#CCCCCOC(=O)NCC(=O)OCCCC`: the TGI in [9], in test [1], in test [2], in [3], in test [4] and in [5] was greater than 100 µM in each case. In addition, the TGI in test [7], in test [8] and in test [10] was greater than 100 µM each time.

In the case of `Cc1ccc2c(=O)cc(-c3csc4ccccc34)[nH]c2n1`, the TGI in test [9] is greater than 33.9 µM; in [2], 12.9 µM; in test [3], greater than 39.7 µM; in test [4], 0.031 µM; in test [5], 2.14 µM; in test [7], 1.1 µM. The results for the TGI in test [8] and in [10] were 16 µM and 1.59 µM, respectively.

On to `O=[N+]([O-])c1cccc(-c2csc(N=Nc3c(O)[nH]c4ccccc34)n2)c1`, for which the concentration for total growth inhibition (TGI) in [9] is 31.8 µM; in test [1] it was 61.8 µM; in test [2], greater than 100 µM; in test [4], greater than 100 µM; in test [5], greater than 100 µM; in [6] it was greater than 100 µM. The total growth inhibition concentration (TGI) in test [7] worked out at 80.1 µM; in test [8], 29.8 µM; in test [10] it was 56.5 µM.

Regarding `CC(C)CCCC(C)[C@H]1CCC2[C@@H]3CCC4Cc5nc6c(nc5C[C@]4(C)C3CC[C@@]21C)CC1CC[C@@H]2C(C[C@@H](O)[C@@]3(C)C2C[C@@H]2OC4(CCC(C)CO4)C(C)[C@@H]23)[C@@]1(C)C6` (some centres not stated), the TGI in test [9], in test [1], in [2], in test [3], in test [4] and in [8] was greater than 100 µM each time. In addition, in [10], the TGI was greater than 100 µM.

Turning to `O=C(Nc1ccccc1F)c1c(O)nc2sccn2c1=O`, the TGI in [9], in test [1], in [2], in test [4], in [5] and in [6] was greater than 10 µM in each case. In addition, the concentration for total growth inhibition (TGI) in test [7] and in [10] was greater than 10 µM throughout.
